Source: ChEMBL document CHEMBL1152560, “Substituted 2-arylbenzothiazoles as kinase inhibitors: hit-to-lead optimization” (Bioorg Med Chem, 2009)

How the values were obtained:
[1] = target: Cyclin-dependent kinase 5/CDK5 activator 1 (Homo sapiens) (UniProt Q00535+Q15078); experiment: Residual activity of CDK5/p25NCK at 1 uM by microplate scintillation counting; assay type: protein-complex assay
[2] = target: CDK6/cyclin D1 (Homo sapiens) (UniProt P24385+Q00534); experiment: Residual activity of CDK6/Cyclin D1 at 1 uM by microplate scintillation counting; assay type: protein-complex assay
[3] = target: Fibroblast growth factor receptor 4 (Homo sapiens) (UniProt P22455); experiment: Residual activity of FGFR4 at 0.1 uM by microplate scintillation counting
[4] = target: Leukocyte tyrosine kinase receptor (Homo sapiens) (UniProt P29376); experiment: Residual activity of LTK at 0.1 uM by microplate scintillation counting
[5] = target: Serine/threonine-protein kinase 16 (Homo sapiens) (UniProt O75716); experiment: Residual activity of TSF1 at 1 uM by microplate scintillation counting
[6] = target: Interferon-induced, double-stranded RNA-activated protein kinase (Homo sapiens) (UniProt P19525); experiment: Residual activity of EIF2AK2 at 10 uM by microplate scintillation counting
[7] = target: Tyrosine-protein kinase Yes (Homo sapiens) (UniProt P07947); experiment: Residual activity of YES at 0.1 uM by microplate scintillation counting
[8] = target: Activated CDC42 kinase 1 (Homo sapiens) (UniProt Q07912); experiment: Residual activity of ACK1 at 1 uM by microplate scintillation counting
[9] = target: T1, Aurora kinase A (Homo sapiens) (UniProt O14965); experiment: Residual activity of Aurora-A at 1 uM by microplate scintillation counting
T1 sequence (whole entry): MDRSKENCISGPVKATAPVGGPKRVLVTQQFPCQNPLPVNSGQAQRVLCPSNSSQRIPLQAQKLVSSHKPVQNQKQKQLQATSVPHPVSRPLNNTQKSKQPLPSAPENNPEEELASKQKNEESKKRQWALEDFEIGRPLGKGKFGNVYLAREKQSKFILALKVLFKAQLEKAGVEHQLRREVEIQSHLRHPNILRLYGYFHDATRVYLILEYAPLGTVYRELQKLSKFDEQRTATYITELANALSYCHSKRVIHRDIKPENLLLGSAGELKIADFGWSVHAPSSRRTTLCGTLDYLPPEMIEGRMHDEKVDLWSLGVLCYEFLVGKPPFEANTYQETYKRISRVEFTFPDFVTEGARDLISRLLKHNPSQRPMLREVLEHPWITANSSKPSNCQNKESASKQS

[10] = target: Ephrin type-A receptor 2 (Homo sapiens) (UniProt P29317); experiment: Residual activity of EPHA2 at 0.1 uM by microplate scintillation counting
[11] = target: Serine/threonine-protein kinase MARK2 (Homo sapiens) (UniProt Q7KZI7); experiment: Residual activity of MARK2 at 10 uM by microplate scintillation counting
[12] = target: Mitogen-activated protein kinase 14 (Homo sapiens) (UniProt Q16539); experiment: Residual activity of p38alpha at 10 uM by microplate scintillation counting
[13] = target: CDK3/cyclin E (Homo sapiens) (UniProt P24864+O96020+Q00526); experiment: Residual activity of CDK3/Cyclin E at 0.1 uM by microplate scintillation counting; assay type: protein-complex assay
[14] = target: Platelet-derived growth factor receptor beta (Homo sapiens, UniProt P09619); experiment: Residual activity of PDGFRbeta at 0.1 uM by microplate scintillation counting
[15] = target: T2, cAMP-dependent protein kinase catalytic subunit PRKX (Homo sapiens) (UniProt P51817); experiment: Residual activity of PRKX at 10 uM by microplate scintillation counting
T2 sequence (whole entry): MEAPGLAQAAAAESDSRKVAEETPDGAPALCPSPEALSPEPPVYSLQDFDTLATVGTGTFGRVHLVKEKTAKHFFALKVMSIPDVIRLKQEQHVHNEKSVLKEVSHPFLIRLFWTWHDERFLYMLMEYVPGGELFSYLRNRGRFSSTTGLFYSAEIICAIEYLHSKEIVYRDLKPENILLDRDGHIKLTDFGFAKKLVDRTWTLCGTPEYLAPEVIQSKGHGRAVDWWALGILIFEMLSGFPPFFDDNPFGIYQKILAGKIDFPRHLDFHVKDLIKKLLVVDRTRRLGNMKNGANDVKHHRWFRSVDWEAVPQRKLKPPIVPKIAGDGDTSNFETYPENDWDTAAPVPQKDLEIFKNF

[16] = target: Protein-tyrosine kinase 2-beta (Homo sapiens) (UniProt Q14289); experiment: Residual activity of PYK2 at 0.1 uM by microplate scintillation counting
[17] = target: T3, Serine/threonine-protein kinase Sgk2 (Homo sapiens) (UniProt Q9HBY8); experiment: Residual activity of SGK2 at 0.1 uM by microplate scintillation counting
T3 sequence (whole entry): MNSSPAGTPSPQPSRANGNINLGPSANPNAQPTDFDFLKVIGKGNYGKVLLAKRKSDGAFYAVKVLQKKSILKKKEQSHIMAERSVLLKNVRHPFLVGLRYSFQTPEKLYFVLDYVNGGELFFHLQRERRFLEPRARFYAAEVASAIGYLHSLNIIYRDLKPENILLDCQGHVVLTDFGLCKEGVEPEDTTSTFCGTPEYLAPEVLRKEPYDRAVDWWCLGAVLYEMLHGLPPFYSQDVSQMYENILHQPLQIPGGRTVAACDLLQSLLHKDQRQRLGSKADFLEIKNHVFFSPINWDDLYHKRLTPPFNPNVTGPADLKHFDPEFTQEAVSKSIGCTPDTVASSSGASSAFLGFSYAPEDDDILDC

[18] = target: T4, Tyrosine-protein kinase Tec (Homo sapiens) (UniProt P42680); experiment: Residual activity of TEC at 0.1 uM by microplate scintillation counting
T4 sequence (whole entry): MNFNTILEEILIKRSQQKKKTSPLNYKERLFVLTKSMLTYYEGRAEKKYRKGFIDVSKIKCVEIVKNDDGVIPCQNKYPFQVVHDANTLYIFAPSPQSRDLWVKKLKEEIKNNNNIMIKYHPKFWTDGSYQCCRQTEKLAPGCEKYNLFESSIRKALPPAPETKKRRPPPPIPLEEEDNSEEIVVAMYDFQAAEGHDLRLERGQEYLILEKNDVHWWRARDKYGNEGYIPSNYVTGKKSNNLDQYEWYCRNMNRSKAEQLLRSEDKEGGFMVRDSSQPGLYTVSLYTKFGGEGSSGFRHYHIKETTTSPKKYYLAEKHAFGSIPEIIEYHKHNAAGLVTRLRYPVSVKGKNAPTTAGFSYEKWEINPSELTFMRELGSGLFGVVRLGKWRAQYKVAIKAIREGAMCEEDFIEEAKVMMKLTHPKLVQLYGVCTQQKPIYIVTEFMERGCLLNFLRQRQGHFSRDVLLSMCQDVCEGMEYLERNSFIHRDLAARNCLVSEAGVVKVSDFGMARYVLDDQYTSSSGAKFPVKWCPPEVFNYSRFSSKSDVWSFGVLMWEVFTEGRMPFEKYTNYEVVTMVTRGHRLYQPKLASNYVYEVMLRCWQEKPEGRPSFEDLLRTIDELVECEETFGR

[19] = target: Epidermal growth factor receptor (Homo sapiens, UniProt P00533); experiment: Inhibition of wild type EGF-R by microplate scintillation counting

Chain of Activated CDC42 kinase 1 (Homo sapiens) (Q07912 whole entry, looked up): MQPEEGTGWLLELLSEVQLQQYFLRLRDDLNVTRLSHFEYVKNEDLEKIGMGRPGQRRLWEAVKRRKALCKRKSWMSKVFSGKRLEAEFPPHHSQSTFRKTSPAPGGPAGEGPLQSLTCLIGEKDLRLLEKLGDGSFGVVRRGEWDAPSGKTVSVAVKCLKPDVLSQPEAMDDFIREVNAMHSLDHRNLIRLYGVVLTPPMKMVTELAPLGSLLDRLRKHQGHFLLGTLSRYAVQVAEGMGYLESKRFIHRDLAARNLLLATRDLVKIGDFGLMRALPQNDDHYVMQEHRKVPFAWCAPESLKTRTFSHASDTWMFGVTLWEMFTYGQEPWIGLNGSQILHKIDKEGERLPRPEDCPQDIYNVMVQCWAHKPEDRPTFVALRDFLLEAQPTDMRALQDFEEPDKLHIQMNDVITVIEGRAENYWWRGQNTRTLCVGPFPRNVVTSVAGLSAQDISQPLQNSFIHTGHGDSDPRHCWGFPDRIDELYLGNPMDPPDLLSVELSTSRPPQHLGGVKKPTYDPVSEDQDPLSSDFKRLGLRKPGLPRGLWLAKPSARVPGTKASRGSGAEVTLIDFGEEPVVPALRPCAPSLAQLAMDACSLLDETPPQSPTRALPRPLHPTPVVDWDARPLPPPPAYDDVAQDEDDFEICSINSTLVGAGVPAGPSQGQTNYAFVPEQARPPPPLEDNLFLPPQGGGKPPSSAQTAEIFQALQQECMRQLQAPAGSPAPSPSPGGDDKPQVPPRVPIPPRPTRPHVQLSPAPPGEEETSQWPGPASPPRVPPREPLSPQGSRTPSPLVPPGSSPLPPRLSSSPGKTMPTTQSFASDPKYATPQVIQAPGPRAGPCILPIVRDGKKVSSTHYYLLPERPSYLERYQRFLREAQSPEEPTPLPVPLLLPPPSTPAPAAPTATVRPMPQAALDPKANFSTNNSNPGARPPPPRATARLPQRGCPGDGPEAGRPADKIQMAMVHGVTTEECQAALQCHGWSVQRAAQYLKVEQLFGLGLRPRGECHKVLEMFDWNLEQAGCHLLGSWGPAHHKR
Chain of Serine/threonine-protein kinase MARK2 (Homo sapiens) (Q7KZI7 whole entry): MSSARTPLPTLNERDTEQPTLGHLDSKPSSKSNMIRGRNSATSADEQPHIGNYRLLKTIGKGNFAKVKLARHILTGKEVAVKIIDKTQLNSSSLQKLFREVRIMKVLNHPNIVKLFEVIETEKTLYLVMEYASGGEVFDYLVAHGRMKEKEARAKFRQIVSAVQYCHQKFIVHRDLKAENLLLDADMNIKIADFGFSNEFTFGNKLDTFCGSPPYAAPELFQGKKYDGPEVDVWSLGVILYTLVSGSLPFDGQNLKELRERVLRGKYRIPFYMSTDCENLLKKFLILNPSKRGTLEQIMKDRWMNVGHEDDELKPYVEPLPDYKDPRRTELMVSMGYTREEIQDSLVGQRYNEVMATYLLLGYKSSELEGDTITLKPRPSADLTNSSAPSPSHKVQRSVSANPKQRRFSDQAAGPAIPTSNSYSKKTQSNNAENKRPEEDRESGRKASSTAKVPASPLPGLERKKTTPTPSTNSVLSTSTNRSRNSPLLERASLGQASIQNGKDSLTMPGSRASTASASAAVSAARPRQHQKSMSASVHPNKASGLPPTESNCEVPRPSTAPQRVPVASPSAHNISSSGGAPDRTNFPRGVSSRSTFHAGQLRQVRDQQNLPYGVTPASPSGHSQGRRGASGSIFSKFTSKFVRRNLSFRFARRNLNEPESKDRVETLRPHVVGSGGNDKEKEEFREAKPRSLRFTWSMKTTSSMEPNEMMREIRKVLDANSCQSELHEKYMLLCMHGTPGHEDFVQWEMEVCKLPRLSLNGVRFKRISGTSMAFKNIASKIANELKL
Chain of Protein-tyrosine kinase 2-beta (Homo sapiens) (Q14289 whole entry, looked up): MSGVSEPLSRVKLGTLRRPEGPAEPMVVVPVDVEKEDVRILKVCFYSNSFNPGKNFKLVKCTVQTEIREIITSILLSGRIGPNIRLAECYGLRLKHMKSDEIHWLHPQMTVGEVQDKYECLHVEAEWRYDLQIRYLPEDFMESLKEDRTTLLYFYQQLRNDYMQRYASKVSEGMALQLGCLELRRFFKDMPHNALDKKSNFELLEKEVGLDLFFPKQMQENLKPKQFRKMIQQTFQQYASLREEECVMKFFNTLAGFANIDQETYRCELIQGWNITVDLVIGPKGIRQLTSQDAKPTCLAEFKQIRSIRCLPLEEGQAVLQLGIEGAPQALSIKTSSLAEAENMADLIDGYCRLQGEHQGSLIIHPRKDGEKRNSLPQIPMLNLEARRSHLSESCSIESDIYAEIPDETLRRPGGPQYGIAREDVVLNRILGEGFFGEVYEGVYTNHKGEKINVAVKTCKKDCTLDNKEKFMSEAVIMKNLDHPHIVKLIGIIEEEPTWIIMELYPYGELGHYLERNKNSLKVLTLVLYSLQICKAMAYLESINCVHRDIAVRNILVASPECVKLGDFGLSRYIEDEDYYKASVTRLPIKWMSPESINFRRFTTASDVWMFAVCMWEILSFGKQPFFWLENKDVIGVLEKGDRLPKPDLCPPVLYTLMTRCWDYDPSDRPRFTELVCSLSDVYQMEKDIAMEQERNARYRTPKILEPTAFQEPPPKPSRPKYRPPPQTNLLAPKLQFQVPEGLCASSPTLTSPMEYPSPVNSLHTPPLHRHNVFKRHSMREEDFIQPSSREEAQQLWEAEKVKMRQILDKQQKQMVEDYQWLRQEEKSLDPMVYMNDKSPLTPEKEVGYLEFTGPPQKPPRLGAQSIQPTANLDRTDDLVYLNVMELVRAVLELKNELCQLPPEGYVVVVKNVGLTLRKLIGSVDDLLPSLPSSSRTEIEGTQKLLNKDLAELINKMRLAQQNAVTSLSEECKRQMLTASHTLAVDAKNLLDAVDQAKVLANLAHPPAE
Chain of Ephrin type-A receptor 2 (Homo sapiens) (P29317 whole entry): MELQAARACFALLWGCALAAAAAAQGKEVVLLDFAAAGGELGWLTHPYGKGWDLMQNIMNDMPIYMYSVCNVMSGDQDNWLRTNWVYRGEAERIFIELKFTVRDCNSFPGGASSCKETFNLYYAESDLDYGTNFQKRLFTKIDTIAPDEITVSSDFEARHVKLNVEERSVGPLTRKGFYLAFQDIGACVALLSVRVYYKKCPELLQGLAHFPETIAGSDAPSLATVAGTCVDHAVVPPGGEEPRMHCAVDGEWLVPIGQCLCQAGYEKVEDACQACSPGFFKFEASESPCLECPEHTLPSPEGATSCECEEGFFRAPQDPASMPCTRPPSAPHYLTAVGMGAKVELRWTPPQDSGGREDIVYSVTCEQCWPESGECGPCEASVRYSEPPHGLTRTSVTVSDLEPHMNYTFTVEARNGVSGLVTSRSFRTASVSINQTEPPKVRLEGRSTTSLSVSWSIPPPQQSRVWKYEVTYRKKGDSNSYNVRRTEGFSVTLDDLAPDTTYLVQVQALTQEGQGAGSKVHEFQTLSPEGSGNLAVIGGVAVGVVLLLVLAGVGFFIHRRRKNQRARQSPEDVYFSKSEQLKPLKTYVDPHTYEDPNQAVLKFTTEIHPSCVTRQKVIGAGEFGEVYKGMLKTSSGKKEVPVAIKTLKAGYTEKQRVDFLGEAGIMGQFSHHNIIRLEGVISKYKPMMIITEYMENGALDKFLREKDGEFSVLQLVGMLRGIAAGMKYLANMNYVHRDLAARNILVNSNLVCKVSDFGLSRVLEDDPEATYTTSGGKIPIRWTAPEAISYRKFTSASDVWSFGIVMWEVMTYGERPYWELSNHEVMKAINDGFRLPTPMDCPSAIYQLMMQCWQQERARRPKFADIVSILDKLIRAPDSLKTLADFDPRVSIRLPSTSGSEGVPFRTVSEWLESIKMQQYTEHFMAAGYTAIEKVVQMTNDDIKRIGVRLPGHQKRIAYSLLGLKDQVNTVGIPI
Chain of Fibroblast growth factor receptor 4 (Homo sapiens) (P22455 22-802 limits assumed): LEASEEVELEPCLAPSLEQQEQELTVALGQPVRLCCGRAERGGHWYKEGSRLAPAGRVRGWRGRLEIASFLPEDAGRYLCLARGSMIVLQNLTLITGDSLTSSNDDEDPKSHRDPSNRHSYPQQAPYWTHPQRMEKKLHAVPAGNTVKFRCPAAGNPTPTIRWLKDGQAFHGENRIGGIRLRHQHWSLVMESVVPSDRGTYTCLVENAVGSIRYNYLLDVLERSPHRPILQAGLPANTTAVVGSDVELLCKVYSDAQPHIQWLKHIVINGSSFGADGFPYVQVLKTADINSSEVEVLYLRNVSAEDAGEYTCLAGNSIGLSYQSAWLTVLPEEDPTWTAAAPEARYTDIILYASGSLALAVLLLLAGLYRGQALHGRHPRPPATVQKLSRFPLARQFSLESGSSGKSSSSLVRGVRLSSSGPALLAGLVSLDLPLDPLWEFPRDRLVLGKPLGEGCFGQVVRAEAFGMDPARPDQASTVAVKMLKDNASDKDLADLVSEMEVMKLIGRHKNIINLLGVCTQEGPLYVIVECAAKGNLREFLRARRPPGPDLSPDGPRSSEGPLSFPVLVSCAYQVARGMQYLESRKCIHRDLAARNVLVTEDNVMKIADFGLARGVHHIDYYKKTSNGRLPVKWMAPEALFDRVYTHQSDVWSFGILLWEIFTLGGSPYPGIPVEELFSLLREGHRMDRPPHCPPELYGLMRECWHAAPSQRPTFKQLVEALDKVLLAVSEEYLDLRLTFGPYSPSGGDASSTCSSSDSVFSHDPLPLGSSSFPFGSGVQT
Chain of Serine/threonine-protein kinase 16 (Homo sapiens) (O75716 whole entry): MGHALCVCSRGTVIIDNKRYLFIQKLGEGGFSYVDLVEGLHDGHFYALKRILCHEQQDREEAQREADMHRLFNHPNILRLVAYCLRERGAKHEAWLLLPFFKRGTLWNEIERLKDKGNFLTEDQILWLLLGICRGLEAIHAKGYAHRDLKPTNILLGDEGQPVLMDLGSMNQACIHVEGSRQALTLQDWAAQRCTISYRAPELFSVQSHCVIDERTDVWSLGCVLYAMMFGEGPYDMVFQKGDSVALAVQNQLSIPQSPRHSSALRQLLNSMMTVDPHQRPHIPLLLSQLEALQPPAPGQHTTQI

Row | residual activity [1] [%] | residual activity [2] [%] | residual activity [3] [%] | residual activity [4] [%] | residual activity [5] [%] | residual activity [6] [%] | residual activity [7] [%] | residual activity [8] [%] | residual activity [9] [%] | residual activity [10] [%] | residual activity [11] [%] | residual activity [12] [%] | residual activity [13] [%] | residual activity [14] [%] | residual activity [15] [%] | residual activity [16] [%] | residual activity [17] [%] | residual activity [18] [%] | IC50 [19] [µM] | SMILES
1 | 87 | 104 | 100 | 99 | 87 | 27 | 98 | 106 | 25 | 76 | 72 | 325 | 90 | 95 | 86 | 103 | 94 | 98 | > 10 | COc1cc2c(Oc3ccc(-c4nc5ccccc5s4)cc3)ncnc2cc1OCCCN1CCCC1
2 | 89 | 100 | 109 | 101 | 96 | 28 | 80 | 90 | 28 | 94 | 60 | 320 | 98 | 95 | 94 | 98 | 95 | 96 | > 10 | COc1cc2c(Oc3ccc(-c4nc5ccccc5s4)cc3F)ncnc2cc1OCCCN1CCN(C)CC1
3 | 82 | 109 | 104 | 82 | 90 | 21 | 93 | 76 | 22 | 99 | 67 | 327 | 86 | 94 | 86 | 102 | 93 | 105 | > 10 | COc1cc2c(Oc3ccc(-c4nc5ccccc5s4)cc3)ncnc2cc1OCCCN1CCN(C)CC1
